In US8697731B2, “Derivatives of 2-pyridin-2-yl-pyrazol-3(2H)-one, preparation and therapeutic use thereof” (Sanofi, priority 2008, dated 2014):

Columns and labels:
[1] = test system: HIF1-alpha; assay: Measurement of the stabilization of HIF1-alpha in HEKEA cells (beta-galactosidase complementation); format: cell-based, human; settings: HEKEA_HIF1-alphaPLBL cells, 6 hours under normoxia, luminescence; molar concentration that produces 50% of the maximum response of this same compound
From the text: Furthermore, a subject of the invention is also a uniform test for the direct measurement by beta-galactosidase complementation of the amount of HIF1-alpha protein in the nucleus of cells, preferably HEK cells, after treating the said cells with one or more test compounds, which consists in: • (a) inoculating, preferably in 384-well plates, the said cells in a suitable culture medium, preferably 1% foetal calf serum (abbreviated as FCS); • (b) adding the test compound(s) at a suitable concentration in a suitable solvent to the cells previously inoculated in the said culture medium; preferably the test compounds are diluted in 0.1% FCS; • (c) incubating the said cells thus prepared in an indicator at about 37° C., advantageously for about 6 hours; • (d) lysing the cells with a lysis buffer containing a chemiluminescent substrate for beta-galactosidase; • (e) incubating in the absence of light, before reading and measuring the luminescence, which is a function of the beta-galactosidase activity.
The test is a cell test based on the principle of enzyme complementation, the enzyme used herein being beta-galactosidase. HEKEA cells are HEK cells stably expressing, and restricted in their nucleus, mutant beta-galactosidase (omega fragment, also known as EA) (line sold by DiscoverX). This construct makes it possible to obtain beta-galactosidase activity only when the protein comprising the Prolabel complementation fragment has migrated into the nucleus.
The protein of interest comprising the Prolabel fragment is in this case an HIF1-alpha or HIF1-alpha mutated at the two prolines 402 and 564 replaced with alanines, is C-terminal fused via molecular biology (DiscoverX vector sold by Clontech) with the small complementation peptide fragment (Prolabel or ED, about 4 kDa). The vector coding for the chimeric protein HIF1-alpha_Prolabel is then transfected into HEKEA cells to obtain stable clones (HEKEA_HIF1-alphaPLBL).
The amount of C-terminal Prolabel-“labelled” HIF1-alpha protein obtained after treating the cells to hypoxia or compounds that are potentially HIF activators is measured by adding to the cells a lysis buffer containing a chemiluminescent substrate for beta-galactosidase.
The measurement of the beta-galactosidase activity will be proportional to the amount of Prolabel and thus of HIF1-alpha that has migrated into the nucleus of the cells.
1.3.1 Experiment Plan • 1) Inoculation of the cells on D0 • 2) Adherence for 24 hours under normoxia • 3) Preparation and addition of the products (Biomek 2000 and FX) on D+1 • 4) Incubation under normoxia for 6 hours • 5) Reading of the plates (by luminescence)
The cells are inoculated with Multidrop in white, opaque-bottomed 384-well plates (Greiner ref 3704), in 30 μl of culture medium (1% FCS) a 10000 cells/well (cell plate).
The test products are prepared at 3×10^−2 M in 100% DMSO and then diluted to 3×10^−4 M in medium containing 0.1% FCS (10 μl in 990 μl of MEM). They are then deposited by hand into column 12 of a round-bottomed 96-well plate (200 μl of each compound) known as the dilution plate (dl). The complete DL plate of 3×10^−4 M to 10^−9 M is then prepared with Biomek 2000 (programme: range of 10 points in series). For the references and controls, 100 μl of DMEM containing 0.1% FCS are added to column 1, 100 μl of Deferoxamine 10^−3M to column 2, wells A B C D and 100 μl of Deferoxamine 5×10^−3 M to column 2, wells E F G H.
3.3 μL are taken from the DL plate by pipetting with a Biomek FX 96 and placed in horizontal duplicate (columns 1 to 24) in each 384-well cell plate (HEKEA_HIF1-alphaPLBL cell plate).
The cells are then placed for 6 hours in an incubator at 37° C. (ambient O2, 6% CO2).
The kit used is the Prolabel chemiluminescent kit (Ref 93-0001 DiscoverX). […]

[2] = test system: EPO; assay: Measurement of the secretion of EPO by Hep3B hepatocytes (ELISA); format: cell-based; settings: Homo sapiens, supernatant of Hep3B cells, 18 hours under normoxia, concentration that produces 50% of the maximum response of this same compound
Method: (§1) The test is an ELISA test for measuring VEGF and EPO in the supernatant of Hep3B cells treated under hypoxia or with deferoxamine as controls or with the potential HIF activators. The test was adapted to a 96-well plate, allowing greater compound screening capacity.
(§2) 2.3.1 Experiment Plan • 1) Inoculation of the cells on D0 • 2) Adherence for 6 hours under normoxia • 3) Preparation and addition of the products (Biomek 2000 and FX) • 4) Incubation under normoxia for 18 hours • 5) EPO and VEGF assay in the supernatant on D+1
(§3) The cells are subcultured into 100 μl of culture medium (10% FCS) in black, opaque-bottomed 96-well plates (reference Costar 3916) at 30000 cells/well, with Multidrop.
(§4) The test products are prepared at 10^−2M in 100% DMSO and then diluted to […] in medium containing 0.1% FCS (6 μl in 194 μl of MEM). 200 μl of each compound are deposited in column 12 of a 96-well plate. Dilution ranges from 3×10^−4M to 3×10^−8M are prepared with Biomek 2000 (programme: range of 9 points in series). 100 μl of MEM 0.1% FCS and Deferoxamine 5×10^−3M are added as controls to column 3 and, respectively, to wells A,B,C,D & wells E,F,G,H
(§5) The medium of the cells inoculated the day before into 96-well plates is changed for 90 μl of medium containing 0.1% FCS and 10 μl are distributed with FX 96 from the 96-well DL plates to the cell plates.
(§6) The cell plates thus treated are placed for 18 hours in an incubator at 37° C. (ambient O2, 6% CO2).
(§7) The supernatants (80 μl) of the Hep3B cells in the 96-well plates treated with the potential HIF activators are recovered with a multichannel pipette for simultaneous assay of the VEGF and the EPO by ELISA according to the supplier's instructions (Kit EPO Mesoscale (ref K15122B-2)).
(§8) The activating activity of a compound with respect to HIF is given by the concentration that produces 50% of the maximum response of this same compound in Table IV.

[3] = test system: VEGF; assay: Measurement of the secretion of VEGF by Hep3B hepatocytes (ELISA); format: cell-based; settings: Homo sapiens, supernatant of Hep3B cells, 18 hours under normoxia, concentration that produces 50% of the maximum response of this same compound
Method: as §1, §2, §3, §4, §5, §6, §7, §8

O=c1c2c([nH]n1-c1ccc(S(=O)(=O)NC3CC3)cn1)CSC2 [Compound 16, N-cyclopropyl-6-(3-oxo-4,6-dihydro-1H-thieno[3,4-c]pyrazol-2(3H)-yl)pyridine-3-sulfonamide]
EC50 [1]: 8.6 µM | EC50 [2]: 3.5 µM | EC50 [3]: 3 µM | melting point: 262 °C

CN(C(C)(C)C)S(=O)(=O)c1ccc(-n2nc3c(c2O)CSC3)nc1 [Compound 36, sodium 2-{5-[tert-butyl(methyl)sulfamoyl]pyridin-2-yl}-2,6-dihydro-4H-thieno[3,4-c]pyrazol-3-olate]
EC50 [1]: 1.2 µM | EC50 [2]: 1.6 µM | EC50 [3]: 2 µM

CCN(c1ccccc1)S(=O)(=O)c1ccc(-n2[nH]c3c(c2=O)SCCC3)nc1 [Compound 24, N-ethyl-6-(3-oxo-3,5,6,7-tetrahydrothiopyrano[3,2-c]pyrazol-2(1H)-yl)-N-phenylpyridine-3-sulfonamide]
EC50 [1]: 3 µM | EC50 [2]: 0.5 µM | EC50 [3]: 0.5 µM | melting point: 198 °C

O=c1c2c([nH]n1-c1ccc(S(=O)(=O)N3CCCCCC3)cn1)CSC2 [Compound 26, 2-[5-(azepan-1-ylsulfonyl)pyridin-2-yl]-1,2,4,6-tetrahydro-3H-thieno[3,4-c]pyrazol-3-one]
EC50 [1]: 1.5 µM | EC50 [2]: 1 µM | EC50 [3]: 1.3 µM | melting point: 236 °C

CCc1ccnc(-n2[nH]c3c(c2=O)CSC3)c1 [Compound 61, sodium 2-(4-ethylpyridin-2-yl)-2,6-dihydro-4H-thieno[3,4-c]pyrazol-3-olate]
EC50 [1]: 1.9 µM | EC50 [2]: 2.2 µM | EC50 [3]: 2.8 µM

CC(C)(C)OC(=O)c1ccc(-n2[nH]c3c(c2=O)CSC3)nc1 [Compound 30, tert-butyl 6-(3-oxo-4,6-dihydro-1H-thieno[3,4-c]pyrazol-2(3H)-yl)pyridine-3-carboxylate]
EC50 [1]: 0.65 µM | EC50 [2]: 1.5 µM | EC50 [3]: 1.8 µM

CC(C)NS(=O)(=O)c1ccc(-n2[nH]c3c(c2=O)CSC3)nc1 [Compound 17, 6-(3-oxo-4,6-dihydro-1H-thieno[3,4-c]pyrazol-2(3H)-yl)-N-(propan-2-yl)pyridine-3-sulfonamide]
EC50 [1]: 10 µM | EC50 [2]: 2.9 µM | EC50 [3]: 2.9 µM | melting point: 258 °C

CCN(c1ccccc1)S(=O)(=O)c1ccc(-n2[nH]c3c(c2=O)CSC3)nc1 [Compound 9, N-ethyl-6-(3-oxo-4,6-dihydro-1H-thieno[3,4-c]pyrazol-2(3H)-yl)-N-phenylpyridine-3-sulfonamide]
EC50 [1]: 1.4 µM | EC50 [2]: 0.7 µM | EC50 [3]: 0.66 µM | melting point: 208 °C

O=c1c2c([nH]n1-c1ccc(S(=O)(=O)NCc3ccco3)cn1)CSC2 [Compound 19, N-(furan-2-ylmethyl)-6-(3-oxo-4,6-dihydro-1H-thieno[3,4-c]pyrazol-2(3H)-yl)pyridine-3-sulfonamide]
EC50 [1]: 5.5 µM | EC50 [2]: 2.4 µM | EC50 [3]: 2.4 µM | melting point: 238 °C

COc1ccnc(-n2[nH]c3c(c2=O)CSC3)c1 [Compound 59, 2-(4-methoxypyridin-2-yl)-1,2,4,6-tetrahydro-3H-thieno[3,4-c]pyrazol-3-one]
EC50 [2]: 2.6 µM | EC50 [3]: 3.1 µM | melting point: 254 °C

CCN(c1ccccc1)S(=O)(=O)c1ccc(-n2nc3c(c2O)N(Cc2ccccc2)C(=O)CC3)nc1 [Compound 35, sodium 4-benzyl-2-{5-[ethyl(phenyl)sulfamoyl]pyridin-2-yl}-5-oxo-4,5,6,7-tetrahydro-2H-pyrazolo[4,3-b]pyridin-3-olate]
EC50 [1]: 2.5 µM | EC50 [2]: 1.7 µM | EC50 [3]: 1.1 µM

CCN(C(C)(C)C)S(=O)(=O)c1ccc(-n2nc3c(c2O)CSC3)nc1 [Compound 32, sodium 2-{5-[tert-butyl(ethyl)sulfamoyl]pyridin-2-yl}-2,6-dihydro-4H-thieno[3,4-c]pyrazol-3-olate]
EC50 [1]: 1.3 µM | EC50 [2]: 2.6 µM | EC50 [3]: 3.2 µM
